Structures can show the parent of a compound that is named as a salt. Where two headings read alike, the source gives them in different places.
How the values were obtained:
Assay in all cases: steady-state tryptophan fluorescence quenching titration in PBS
Format in all cases: binding
[1] = target: hen egg-white lysozyme (HEWL) (Gallus gallus, UniProt P00698)
[2] = target: T1, bovine serum albumin (BSA) (Bos taurus, UniProt P02769)
[3] = target: T1, bovine serum albumin (BSA); remark: listed apart in the source

T1 sequence (P02769 25-607): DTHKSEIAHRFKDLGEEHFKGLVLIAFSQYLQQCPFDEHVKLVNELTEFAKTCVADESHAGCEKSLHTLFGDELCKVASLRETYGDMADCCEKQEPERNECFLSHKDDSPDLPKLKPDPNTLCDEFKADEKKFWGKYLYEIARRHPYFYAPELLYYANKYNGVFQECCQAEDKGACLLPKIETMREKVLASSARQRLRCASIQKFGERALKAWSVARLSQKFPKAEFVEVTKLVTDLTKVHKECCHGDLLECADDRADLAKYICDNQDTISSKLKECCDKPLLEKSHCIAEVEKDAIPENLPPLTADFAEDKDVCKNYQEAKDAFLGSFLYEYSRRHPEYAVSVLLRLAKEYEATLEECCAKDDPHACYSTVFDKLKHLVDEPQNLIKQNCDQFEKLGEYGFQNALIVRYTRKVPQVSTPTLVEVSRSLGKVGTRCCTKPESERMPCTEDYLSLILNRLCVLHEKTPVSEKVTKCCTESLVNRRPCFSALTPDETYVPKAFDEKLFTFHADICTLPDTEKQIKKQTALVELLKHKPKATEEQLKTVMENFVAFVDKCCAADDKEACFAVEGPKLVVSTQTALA
hen egg-white lysozyme (HEWL), sequence (P00698 19-147): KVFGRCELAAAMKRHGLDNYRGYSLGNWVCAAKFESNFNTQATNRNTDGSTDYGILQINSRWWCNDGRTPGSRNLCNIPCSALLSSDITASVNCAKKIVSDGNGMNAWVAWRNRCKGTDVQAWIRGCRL

Row | Compound | Kd [1] [µM] | Kd [2] [µM] | Kd [3] [µM]
1 | Cn1cc(C2=C(c3ccc(Cl)cc3Cl)C(=O)NC2=O)c2ccccc21 [SB216763] | 1.7 ± 0.7 | 5.2 ± 1.2 | –
2 | COc1cccc2c1C(=O)c1c(O)c3c(c(O)c1C2=O)C[C@@](O)(C(=O)CO)C[C@@H]3O[C@H]1C[C@H](N)[C@H](O)[C@H](C)O1 [Doxorubicin] | – | – | 16.5 ± 2.5
3 | CCN(CC)CCCC(C)Nc1c2ccc(Cl)cc2nc2ccc(OC)cc12 (stereo not shown) [Quinacrine dihydrochloride] | – | – | 4.6 ± 1.1

— article PMC9490042 (iScience, 2022)
